Source: PubChem BioAssay AID1648 (Sanford-Burnham Center for Chemical Genomics, 2009)
Calls of active or inactive are those of the source. No rule for the calls is given here.

target: Serine/threonine-protein kinase mTOR (Homo sapiens) (UniProt P42345); test: mTOR FRB domain ligand binding – biophysical, NMR (AID 1648); details: NMR binding to FRB domain, chemical shift
Sequence (P42345 2015-2114): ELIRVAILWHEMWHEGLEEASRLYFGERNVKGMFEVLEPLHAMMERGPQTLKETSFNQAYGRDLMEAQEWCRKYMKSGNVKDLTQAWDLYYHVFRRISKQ

Row | SMILES | Kd
1 | CC(=O)c1ccc2c(c1)OCCO2 | > 4 mM (inactive)
2 | O=C(O)C1CC(=O)N(CCc2ccc(Cl)cc2)C1 (configuration not stated) | > 4 mM (inactive)
3 | Cc1cc(NC(=O)c2ccccc2C(=O)O)no1 | > 4 mM (inactive)
4 | Cc1ccc(C)c(C(=O)n2cnnc2N)c1 | > 4 mM (inactive)
5 | Cc1noc(C)c1C(=O)Nc1sc(C)c(C)c1C#N | > 4 mM (inactive)
6 | COc1ccc(NS(=O)(=O)c2ccc(N)cc2)nn1 | > 4 mM (inactive)
7 | Cn1cnc2c(Cl)ncnc21 | > 4 mM (inactive)
8 | COc1ccc2c(CC(=O)O)coc2c1 | > 4 mM (inactive)
9 | O=C(Nc1ccc(F)cc1F)c1ccco1 | > 4 mM (inactive)
10 | CC(C)C(C)/C=C/C(C)C1CCC2C3=CC=C4CC(O)CCC4(C)C3CCC21C (configuration not stated) | > 4 mM (inactive)
11 | COc1ccc(-c2coc3cc(O)ccc3c2=O)c(OC)c1 | > 4 mM (inactive)
12 | Cc1cc(=O)n2[nH]c(N)nc2n1 | > 4 mM (inactive)
13 | C=CCn1c(-c2ccc(O)cc2)n[nH]c1=S | > 4 mM (inactive)
14 | O=C1CSC(=Nc2ccc(C(=O)O)cc2)N1 | > 4 mM (inactive)
15 | CC(C)(C)c1cc(CN)c(C(=O)O)o1 | > 4 mM (inactive)
16 | Cn1nc(C(=O)Nc2cccnc2)c2ccccc2c1=O | > 4 mM (inactive)
17 | CCNC(=S)Nc1c(C)n(C)n(-c2ccccc2)c1=O | > 4 mM (inactive)
18 | Cc1ccc2c(c1)CCCN2C(=O)c1c(C)noc1C | > 4 mM (inactive)
19 | CC1=C(C(N)=O)C(c2ccccc2)NC(=O)N1 (configuration not stated) | > 4 mM (inactive)
20 | O=C(O)Cc1csc(-c2ccccc2)n1 | > 4 mM (inactive)
21 | Cc1cccc(C(C)C)c1NC(=O)c1cccnc1 | > 4 mM (inactive)
22 | CC(C)NC(=S)NCc1cnn(C)c1 | > 4 mM (inactive)
23 | NC(=O)c1ccsc1NC(=O)C1=COCCO1 | > 4 mM (inactive)
24 | Cc1ccccc1OCC(=O)O | > 4 mM (inactive)
25 | Nc1cccc(NC(=O)c2ccco2)c1 | > 4 mM (inactive)

Row | SMILES | Kd
26 | COC(=O)c1ccc(C(=S)N2CCOCC2)cc1 | > 4 mM (inactive)
27 | Cc1n[nH]c(=S)[nH]c1=O | > 4 mM (inactive)
28 | C=C(C)CSc1nc2nc(C)cc(C)n2n1 | > 4 mM (inactive)
29 | CC(=O)Nc1cccc(NC(=O)c2ccco2)c1 | > 4 mM (inactive)
30 | O=C(Nc1ccc2c(c1)OCO2)c1cccs1 | > 4 mM (inactive)
31 | CC(C)(C)C(=O)Nc1ncc(C(F)(F)F)cc1Cl | > 4 mM (inactive)
32 | COc1cccc2onc(N)c12 | > 4 mM (inactive)
33 | CS(=O)(=O)Nc1nnc(Cc2ccccc2)s1 | > 4 mM (inactive)
34 | c1cnc(N2CCSCC2)nc1 | > 4 mM (inactive)
35 | Cc1cc(NC(=O)c2c(F)c(F)c(F)c(F)c2F)no1 | > 4 mM (inactive)
36 | O=C(O)/C=C/C=C/c1ccccc1 | > 4 mM (inactive)
37 | Cc1noc(C)c1CSc1nc2ccccc2[nH]1 | > 4 mM (inactive)
38 | S=C1NC(=S)NC(c2ccc3c(c2)OCO3)N1 | > 4 mM (inactive)
39 | Cn1cccc1C(=O)NS(=O)(=O)c1ccccc1Cl | > 4 mM (inactive)
40 | COc1cc([C@@H]2c3cc4c(cc3[C@H](O)[C@H]3COC(=O)[C@H]23)OCO4)cc(OC)c1OC | > 4 mM (inactive)
41 | CC1(C)C(=O)C=C[C@@]2(C)C1=C(O)C(=O)[C@]1(C)C2CC[C@@]2(C)[C@H](c3ccoc3)C[C@H]3O[C@]321 (some centres not stated) | > 4 mM (inactive)
42 | Nc1ncccc1OCc1ccccc1 | > 4 mM (inactive)
43 | O=C1C2C3C=CC(C3)C2C(=O)N1c1cccnc1 (configuration not stated) | > 4 mM (inactive)
44 | Nc1ccc2c(c1)OCCO2 | > 4 mM (inactive)
45 | Cc1ccc(Nc2nnns2)cc1C | > 4 mM (inactive)
46 | O=C(O)c1c[nH]c2ccccc12 | > 4 mM (inactive)
47 | COC(=O)C1[C@H]2C[C@H]3c4[nH]c5ccccc5c4CCN3C[C@@H]2CC[C@@H]1O (some centres not stated) | > 4 mM (inactive)
48 | O=C1CSC(=S)N1N1C(=O)C2C3C=CC(C3)C2C1=O (configuration not stated) | > 4 mM (inactive)
49 | Cc1n[nH]c(C)c1CC(=O)O | > 4 mM (inactive)
50 | NS(=O)(=O)c1ccc(NC(=S)NC2CC2)cc1 | > 4 mM (inactive)

Row | SMILES | Kd
51 | NCc1nnnn1-c1ccccc1 | > 4 mM (inactive)
52 | NC1C2CC3CC1CC(O)(C3)C2 (configuration not stated) | > 4 mM (inactive)
53 | COc1cccc(N2CCN(C(=O)c3cccnc3)CC2)c1 | > 4 mM (inactive)
54 | O=C(O)c1cccnc1N1CCOCC1 | > 4 mM (inactive)
55 | CC1SC(=NC(=O)c2ccco2)NC1=O (configuration not stated) | > 4 mM (inactive)
56 | COC(=O)CSc1ncnc2c(C)csc12 | > 4 mM (inactive)
57 | O=C(Nc1ccncc1)Nc1ccc(F)cc1F | > 4 mM (inactive)
58 | O=C(CC1SC(=O)NC1=O)Nc1nccs1 (configuration not stated) | > 4 mM (inactive)
59 | Cc1ccccc1C(=O)Nc1cccc(N)c1 | > 4 mM (inactive)
60 | Nc1cc(=O)[nH]c(=O)n1-c1ccccc1 | > 4 mM (inactive)
61 | Cn1c(SCc2ccon2)nc2ccccc2c1=O | > 4 mM (inactive)
62 | O=C(Oc1ccc(-c2nnco2)cc1)N1CCOCC1 | > 4 mM (inactive)
63 | Nc1nnc(SCc2ccc(F)cc2)s1 | > 4 mM (inactive)
64 | O=C(O)CSc1cccc2cccnc12 | > 4 mM (inactive)
65 | O=C(NC(=S)NCCO)c1ccccc1 | > 4 mM (inactive)
66 | CC(C)CNc1cc(=O)n(C)c(=O)n1C | > 4 mM (inactive)
67 | CNC(=O)C(=O)Nc1ccc(C)c(C)c1 | > 4 mM (inactive)
68 | Oc1ccccc1-c1cc(C(F)(F)F)[nH]n1 | > 4 mM (inactive)
69 | N=C1/C(=C\c2ccccc2)C(=O)N=C2SC=NN12 | > 4 mM (inactive)
70 | c1cncc(C(N2CCOCC2)N2CCOCC2)c1 | > 4 mM (inactive)
71 | Cc1c(C(=O)Nc2ccccc2)sc(N)c1C(N)=O | > 4 mM (inactive)
72 | c1ccc(CCc2nc(-c3cccnc3)no2)cc1 | > 4 mM (inactive)
73 | CC(=O)Nc1ccc(NC(C)=O)cc1 | > 4 mM (inactive)
74 | CCOC(=O)N1CCN(c2ncnc3c2cnn3C)CC1 | > 4 mM (inactive)
75 | OCc1cccc2nonc12 | > 4 mM (inactive)

Row | SMILES | Kd
76 | O=C(O)CCSc1nc2ccccc2s1 | > 4 mM (inactive)
77 | Cc1c(O)c(O)cc2c1CC=C1[C@@]2(C)CC[C@@]2(C)C3C[C@](C)(C(=O)O)CC[C@]3(C)CC[C@]12C (some centres not stated) | > 4 mM (inactive)
78 | O=C(Cc1cccs1)Nc1ccccn1 | > 4 mM (inactive)
79 | O=C(NC1CCS(=O)(=O)C1)c1cccs1 (configuration not stated) | > 4 mM (inactive)
80 | CC(C)CCn1cnc2c1c(=O)n(C)c(=O)n2C | > 4 mM (inactive)
81 | O=c1c(-c2ccco2)[n+]([O-])c2ccccc2n1O | > 4 mM (inactive)
82 | O=C1C=CC2=C3c4cc(O)c(O)cc4C[C@@]3(O)COC2=C1 | > 4 mM (inactive)
83 | COC(=O)C1=C(C)N(Cc2ccco2)C(=O)C1 | > 4 mM (inactive)
84 | CC(=O)Nc1c(C)n(C)n(-c2ccccc2)c1=O | > 4 mM (inactive)
85 | CC1(C)CC[C@]2(C(=O)O)CC[C@]3(C)C(=CCC4[C@@]5(C)CC[C@H](O)[C@@](C)(CO)C5CC[C@]43C)C2C1 (some centres not stated) | > 4 mM (inactive)
86 | O=C(Nc1nc2c(s1)CCCC2)c1cccnc1 | > 4 mM (inactive)
87 | CSc1nc(O)cc(=O)[nH]1 | > 4 mM (inactive)
88 | COc1ccc(-c2nnsc2N)cc1 | > 4 mM (inactive)
89 | O=C(NCc1ccccc1)c1cnsn1 | > 4 mM (inactive)
90 | Cc1occc1C(=O)Nc1sccc1C(N)=O | > 4 mM (inactive)
91 | Cc1cccc(-c2nnc(-c3ccc(N)cc3)o2)c1 | > 4 mM (inactive)
92 | OCc1ccccc1N1CCOCC1 | > 4 mM (inactive)
93 | S=C(CN1CCCC1=S)N1CCOCC1 | > 4 mM (inactive)
94 | C=C1C(=O)OC2CC1C(OC(C)=O)C/C(C)=C/CC/C(C)=C/CC[C@]2(C)O (some centres not stated) | > 4 mM (inactive)
95 | CCn1cnc2cc(NCc3ccncc3)ccc21 | > 4 mM (inactive)
96 | CCn1nnc(NC(=O)c2cc3ccccc3o2)n1 | > 4 mM (inactive)
97 | O=c1[nH]cnc2nn(-c3ccccc3)nc12 | > 4 mM (inactive)
98 | C=CC(C1=CC(=O)C(OC)=CC1=O)c1ccccc1 (configuration not stated) | > 4 mM (inactive)
99 | O=C(O)c1cncc(-c2ccccc2)c1 | > 4 mM (inactive)
100 | CC(=O)c1cc(C(N)=O)c(=S)[nH]c1C | > 4 mM (inactive)

Row | SMILES | Kd
101 | Nc1cc(F)cc(F)c1 | > 4 mM (inactive)
102 | O=C(NCc1ccco1)c1ccc(Br)s1 | > 4 mM (inactive)
103 | CN(Cc1nc2ccccc2n1C)C(=O)c1cccs1 | > 4 mM (inactive)
104 | Nc1nc(SCc2ccc3c(c2)OCCO3)n[nH]1 | > 4 mM (inactive)
105 | CC(=O)c1cccc(NS(=O)(=O)N2CCCCC2)c1 | > 4 mM (inactive)
106 | O=C(CN1C(=O)CCC1=O)c1ccccc1 | > 4 mM (inactive)
107 | O=C(c1ccc(Cl)c(F)c1F)N1CCCC1 | > 4 mM (inactive)
108 | N=Cc1c(O)n(-c2cccc(Cl)c2)c(=O)[nH]c1=O | > 4 mM (inactive)
109 | NC(=O)C1CCN(C(=S)c2cccs2)CC1 | > 4 mM (inactive)
110 | CC1=C(/C=C/C(C)=C/C=C/C(C)=C/C=C/C=C(C)/C=C/C=C(C)/C=C/C2=C(C)CCCC2(C)C)C(C)(C)CCC1 | > 4 mM (inactive)
111 | c1ccc2c(c1)nnn2C1CCNCC1 | > 4 mM (inactive)
112 | NCc1cccc(-n2cccc2)c1 | > 4 mM (inactive)
113 | O=C(CC1NCCNC1=O)Nc1ccccc1 (configuration not stated) | > 4 mM (inactive)
114 | CC1(C)C2CC[C@]3(C)C(C(=O)C=C4[C@H]5C[C@@](C)(C(=O)O)CC[C@]5(C)CC[C@]43C)[C@@]2(C)CC[C@@H]1O (some centres not stated) | > 4 mM (inactive)
115 | c1ccc(CN2CCC3(CC2)Nc2ccccc2CO3)cc1 | > 4 mM (inactive)
116 | NCc1ccc2c(c1)OCCCO2 | > 4 mM (inactive)
117 | O=C(O)c1snnc1-c1ccccc1 | > 4 mM (inactive)
118 | NC(=O)CSc1nnc2ccc(-c3ccco3)nn12 | > 4 mM (inactive)
119 | COCC(=O)Nc1ccc(C)c(Cl)c1 | > 4 mM (inactive)
120 | O=C1NC(=O)/C(=C/c2ccc(O)cc2)N1 | > 4 mM (inactive)
121 | O=C(Oc1ccc2c(c1)OCC2=O)c1ccccc1 | > 4 mM (inactive)
122 | CC(=O)N1N=C(N)SC1c1cccnc1 (configuration not stated) | > 4 mM (inactive)
